From article PMC11596972, “Synthesis and Antimicrobial Activity of 3-Alkylidene-2-Indolone Derivatives” (Molecules, 2024)
In brackets after ≈: the same amount, converted by molar mass. Read-outs that look alike come from different tables or passages of the source.

Tests used:
S. aureus ATCC 6538 = experiment: MIC, double dilution method, S. aureus ATCC 6538; type: cell-based; conditions: Staphylococcus aureus, ATCC6538, 24 h
MRSA ATCC 43300 = experiment: MIC, double dilution method, MRSA ATCC 43300; type: cell-based, Methicillin-resistant Staphylococcus aureus; conditions: Staphylococcus aureus, 24 h, MRSA ATCC 43300, Gram-positive, 24 h culture
[1] = Cytotoxicity, MTT assay, HepG2; type: cell-based; conditions: human, HepG2 cells, 48 h incubation
Experimental: (§1) The cytotoxicity of the most bioactive compounds 10f, 10g and 10h were evaluated in vitro against the HepG2 cell line (human hepatocellular carcinoma cell line) and the L-02 cell line (normal liver cell line) by 3-(4,5-dimethylthiazol-2-yl)-2,5-diphenyltetrazolium bromide (MTT) assay. The obtained results were presented by the inhibitory concentration that reduces the viability of the cell population to 50% of the maximal viability (IC50).
(§2) HepG2 cells and L-02 cells (ATCC, Manassas, VA, USA) were plated in 96-well plates at a density of 30–40% to ensure exponential growth throughout the experimental period, and then allowed to adhere for 1 day. Next, the cells were treated with eight concentrations (100, 50, 25, 10, 5, 1, 0.1, and 0.01 μmol/L) of each compound. After 48 h of incubation, MTT solution was added to each well at a final concentration of 2 mg/mL and incubated for an additional 4 h. Next, the MTT solution was removed and […] of dimethyl sulphoxide (DMSO)/well was added (Sigma-Aldrich, St. Louis, MO, USA). The plates were shaken vigorously at RT to ensure complete solubilization, and absorption at 492 nm was determined by a microplate reader (BioTek Instruments, Inc., Winooski, VT, USA). At least three independent experiments were conducted.

C. albicans CMCC 98001 = experiment: MIC, double dilution method, C. albicans CMCC 98001; type: cell-based, Candida albicans; conditions: for MIC: C. albicans CMCC 98001, fungus, 24 h culture
[2] = tested on: Staphylococcus aureus ATCC 6538; experiment: Minimum bactericidal concentration, S. aureus ATCC 6538; type: cell-based; conditions: ATCC6538, 99.9% reduction of inoculum
Experimental: (§3) Moreover, minimum bactericidal concentration (MBC (μg/mL)) or minimum fungicidal concentration (MFC (μg/mL)) assays were performed for the promising compounds 10d, 10f, 10g and 10h against Staphylococcus aureus ATCC 6538, Staphylococcus aureus 4220, Staphylococcus aureus ATCC 43300 and Candida albicans CMCC 98001, and shown in Table 2.
(§4) The minimum bactericidal concentration (MBC) or minimum fungicidal concentration (MFC) was determined as described, following the MIC assay, by subculturing 5 μL of the compounds from wells showing no visible growth onto fresh agar plates. The plates were incubated at 37 °C for 24 h.

S. aureus 4220 = experiment: MIC, double dilution method, S. aureus 4220; type: cell-based; conditions: Staphylococcus aureus, 4220, 24 h
[3] = Cytotoxicity, MTT assay, L-02; type: cell-based; conditions: human, L-02 cells (normal liver cell line), 48 h incubation
Experimental: as §1, §2

P. aeruginosa CMCC 10211 = experiment: MIC, double dilution method, P. aeruginosa CMCC 10211; type: cell-based; conditions: Pseudomonas aeruginosa
E. coli ATCC 25922 = experiment: MIC, double dilution method, E. coli ATCC 25922; type: cell-based; conditions: Escherichia coli
E. coli 1924 = experiment: MIC, double dilution method, E. coli 1924; type: cell-based, Escherichia coli
[4] = tested on: Gram-positive and Gram-negative bacterial strains; parameters: method as in PMID 27318539; conditions: most of the tested Gram-positive and Gram-negative bacterial strains; cited from earlier work
[5] = tested on: three Gram-positive bacteria strains and two Gram-negative bacteria strains; parameters: method as in PMID 29968851; conditions: cited from earlier work
[6] = tested on: Candida albicans CMCC 98001; experiment: Minimum fungicidal concentration, C. albicans CMCC 98001; type: cell-based
Experimental: as §3, §4

Staphylococcus aureus = tested on: Staphylococcus aureus; parameters: method as in PMID 28946655; conditions: cited from earlier work
E. coli ATCC 25,922 = tested on: E. coli ATCC 25,922; parameters: method as in PMID 33839249; conditions: cited from earlier work
[7] = tested on: Staphylococcus aureus 4220; experiment: Minimum bactericidal concentration, S. aureus 4220; type: cell-based; conditions: 99.9% reduction of inoculum
Experimental: as §3, §4

[8] = tested on: Staphylococcus aureus ATCC 43300; experiment: Minimum bactericidal concentration, S. aureus ATCC 43300; type: cell-based; conditions: ATCC43300
Experimental: as §3, §4

[9] = tested on: four bacteria and three fungi; parameters: method as in doi:10.1007/s11164-013-1403-x; conditions: cited from earlier work
[10] = Candida albicans, CMCC98001, 24 h
[11] = S. aureus ATCC 6538, Gram-positive, 24 h culture, read-out: MIC
[12] = Candida albicans, CMCC98001, 24 h, read-out: MIC
[13] = S. aureus 4220, Gram-positive, 24 h culture, read-out: MIC
[14] = CMCC10211, P. aeruginosa CMCC 10211, Gram-negative, 24 h culture, read-out: MIC
[15] = ATCC25922, E. coli ATCC 25922, Gram-negative, 24 h culture, read-out: MIC
[16] = Escherichia coli, E. coli 1924, Gram-negative, 24 h culture, read-out: MIC

SMILES	MIC (S. aureus ATCC 6538) [µg/mL]	MIC (MRSA ATCC 43300) [µg/mL]	MIC (C. albicans CMCC 98001; [10]) [µg/mL]	MIC (S. aureus 4220) [µg/mL]	MIC (P. aeruginosa CMCC 10211; CMCC10211, 24 h) [µg/mL]	MIC (E. coli ATCC 25922; ATCC25922, 24 h) [µg/mL]	MIC (E. coli 1924; Escherichia coli, 1924, 24 h) [µg/mL]	MIC (S. aureus ATCC 6538; [11]) [µg/mL]	MIC (MRSA ATCC 43300; read-out: MIC) [µg/mL]	MIC (C. albicans CMCC 98001; [12]) [µg/mL]	MIC (S. aureus 4220; [13]) [µg/mL]	MIC (P. aeruginosa CMCC 10211; [14]) [µg/mL]	MIC (E. coli ATCC 25922; [15]) [µg/mL]	MIC (E. coli 1924; [16]) [µg/mL]	other results
Cc1cccc2c1N(C)C(=O)/C2=C(\O)c1ccc(Cl)cc1 [Compound 10f, (Z)-3-((4-chlorophenyl)(hydroxy)methylene)-1,7-dimethylindolin-2-one]	0.5 (≈ 1.67 µM)	2 (≈ 6.67 µM)	> 64	4 (≈ 13.3 µM)	> 64	> 64	8 (≈ 26.7 µM)	–	–	–	–	–	–	–	IC50 at 48 h [1]: > 100 µM; MBC [2]: 32 µg/mL (≈ 107 µM); IC50 at 48 h [3]: > 100 µM
CN(C)c1cccc2cc(S(=O)(=O)N3CCN(c4ccc(/C=C5\C(=O)Nc6ccccc65)cc4)CC3)ccc12 [VII]	–	–	–	–	–	–	–	–	–	–	–	–	–	–	MIC [4]: 12.5 to 50 µg/mL
Cn1c([N+](=O)[O-])cnc1/C=C1/C(=O)Nc2ccc([N+](=O)[O-])cc21 [Compound XI]	–	–	–	–	–	–	–	–	–	–	–	–	–	–	MIC [5]: 0.0625 to 4 µg/mL
CN1C(=O)/C(=C(\O)c2cccs2)c2ccccc21 [Compound 10a, (Z)-3-(hydroxy(thiophen-2-yl)methylene)-1-methylindolin-2-one]	–	–	–	–	–	–	–	64 (≈ 249 µM)	64 (≈ 249 µM)	64 (≈ 249 µM)	> 64	64 (≈ 249 µM)	> 64	32 (≈ 124 µM)	melting point: 141 to 143 °C
CN1C(=O)/C(=C(\O)c2ccc(F)cc2)c2ccccc21 [Compound 10d, (Z)-3-((4-fluorophenyl)(hydroxy)methylene)-1-methylindolin-2-one]	4 (≈ 14.9 µM)	32 (≈ 119 µM)	8 to 16 (≈ 29.7 to 59.4 µM)	16 (≈ 59.4 µM)	> 64	64 (≈ 238 µM)	8 (≈ 29.7 µM)	–	–	–	–	–	–	–	antifungal activity (class in words) (C. albicans CMCC 98001; C. albicans CMCC 98001): moderate antifungal activity; MIC (C. albicans CMCC 98001): 8 µg/mL (≈ 29.7 µM); MFC/MIC [6]: 2; MFC ([6]; CMCC98001, 99.9% reduction of inoculum): 16 µg/mL (≈ 59.4 µM)
O=C1NC(c2c[nH]c3ccc(O)cc23)=C/C1=C1\C(=O)Nc2ccccc21 [Compound VI, violacein]	–	–	–	–	–	–	–	–	–	–	–	–	–	–	MIC (Staphylococcus aureus): 6.25 µM (≈ 2.15 µg/mL)
CCC(=O)/C=C1/C(=O)N(CCn2cncn2)c2ccccc21 [IX]	–	–	–	–	–	–	–	–	–	–	–	–	–	–	MIC (E. coli ATCC 25,922): 1 µg/mL (≈ 3.37 µM)
CN1C(=O)/C(=C(\O)c2ccc(Cl)cc2)c2cccc(Br)c21 [Compound 10g, (Z)-7-bromo-3-((4-chlorophenyl)(hydroxy)methylene)-1-methylindolin-2-one]	2 (≈ 5.49 µM)	0.5 (≈ 1.37 µM)	> 64	0.5 (≈ 1.37 µM)	> 64	64 (≈ 176 µM)	1 (≈ 2.74 µM)	–	–	–	–	–	–	–	IC50 at 48 h [1]: > 100 µM; MBC [7]: 32 µg/mL (≈ 87.8 µM); IC50 at 48 h [3]: > 100 µM
CCCN1C(=O)/C(=C(\O)c2ccc(Cl)cc2)c2ccccc21 [Compound 10h, (Z)-3-((4-chlorophenyl)(hydroxy)methylene)-1-propylindolin-2-one]	0.5 (≈ 1.59 µM)	0.5 (≈ 1.59 µM)	64 (≈ 204 µM)	1 (≈ 3.19 µM)	16 (≈ 51 µM)	16 (≈ 51 µM)	1 (≈ 3.19 µM)	–	–	–	–	–	–	–	IC50 at 48 h [1]: 41.6 µM; MBC [8]: 32 µg/mL (≈ 102 µM); IC50 at 48 h [3]: 53.5 µM
C/C(O)=C1/C(=O)N(C)c2ccccc21 [Compound 5a, (Z)-3-(1-hydroxyethylidene)-1-methylindolin-2-one]	–	–	–	–	–	–	–	> 64	> 64	32 (≈ 169 µM)	64 (≈ 338 µM)	64 (≈ 338 µM)	> 64	64 (≈ 338 µM)	melting point: 95 to 97 °C
C/C(O)=C1/C(=O)N(C)c2ccc(Br)cc21 [Compound 5n, (Z)-5-bromo-3-(1-hydroxyethylidene)-1-methylindolin-2-one]	–	–	–	–	–	–	–	32 (≈ 119 µM)	> 64	64 (≈ 239 µM)	32 (≈ 119 µM)	> 64	> 64	8 (≈ 29.8 µM)	–
O=C1Nc2ccccc2/C1=C\C(=O)c1cc(Cl)c(Cl)cc1O [Compound X]	–	–	–	–	–	–	–	–	–	–	–	–	–	–	MIC [9]: 12 to 18 µg/mL
C/C(O)=C1/C(=O)N(C)c2cc(C)ccc21 [Compound 5c, (Z)-3-(1-hydroxyethylidene)-1,6-dimethylindolin-2-one]	–	–	–	–	–	–	–	64 (≈ 315 µM)	> 64	16 (≈ 78.7 µM)	> 64	64 (≈ 315 µM)	64 (≈ 315 µM)	16 (≈ 78.7 µM)	–
